The source of these data is patent US20090118332A1, “Therapeutic Agents - 551” (AstraZeneca AB, priority 2006, published 2009).

This assay has as its target T1, human Fatty Acid Synthase (Homo sapiens, UniProt P49327).
T1 construct: made in house
Nature of the assay: Human FAS enzyme assay (decrease in NADPH fluorescence). The class given is biochemical. The settings on record: for inhibition at 100 µM: % inhibition at a concentration of 100 μmolar. Put shortly: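 In-house human FAS was preincubated with compound and NADPH for 15 min at room temperature in 0.1 M Tris pH 7.5 with EDTA, glutathione and BSA. Malonyl CoA and acetyl CoA (500 μM and 150 μM in the added mix) were then added for 60 min. IC50 came from time-zero-subtracted NADPH fluorescence (340/460 nm).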

T1 sequence (P49327 whole entry): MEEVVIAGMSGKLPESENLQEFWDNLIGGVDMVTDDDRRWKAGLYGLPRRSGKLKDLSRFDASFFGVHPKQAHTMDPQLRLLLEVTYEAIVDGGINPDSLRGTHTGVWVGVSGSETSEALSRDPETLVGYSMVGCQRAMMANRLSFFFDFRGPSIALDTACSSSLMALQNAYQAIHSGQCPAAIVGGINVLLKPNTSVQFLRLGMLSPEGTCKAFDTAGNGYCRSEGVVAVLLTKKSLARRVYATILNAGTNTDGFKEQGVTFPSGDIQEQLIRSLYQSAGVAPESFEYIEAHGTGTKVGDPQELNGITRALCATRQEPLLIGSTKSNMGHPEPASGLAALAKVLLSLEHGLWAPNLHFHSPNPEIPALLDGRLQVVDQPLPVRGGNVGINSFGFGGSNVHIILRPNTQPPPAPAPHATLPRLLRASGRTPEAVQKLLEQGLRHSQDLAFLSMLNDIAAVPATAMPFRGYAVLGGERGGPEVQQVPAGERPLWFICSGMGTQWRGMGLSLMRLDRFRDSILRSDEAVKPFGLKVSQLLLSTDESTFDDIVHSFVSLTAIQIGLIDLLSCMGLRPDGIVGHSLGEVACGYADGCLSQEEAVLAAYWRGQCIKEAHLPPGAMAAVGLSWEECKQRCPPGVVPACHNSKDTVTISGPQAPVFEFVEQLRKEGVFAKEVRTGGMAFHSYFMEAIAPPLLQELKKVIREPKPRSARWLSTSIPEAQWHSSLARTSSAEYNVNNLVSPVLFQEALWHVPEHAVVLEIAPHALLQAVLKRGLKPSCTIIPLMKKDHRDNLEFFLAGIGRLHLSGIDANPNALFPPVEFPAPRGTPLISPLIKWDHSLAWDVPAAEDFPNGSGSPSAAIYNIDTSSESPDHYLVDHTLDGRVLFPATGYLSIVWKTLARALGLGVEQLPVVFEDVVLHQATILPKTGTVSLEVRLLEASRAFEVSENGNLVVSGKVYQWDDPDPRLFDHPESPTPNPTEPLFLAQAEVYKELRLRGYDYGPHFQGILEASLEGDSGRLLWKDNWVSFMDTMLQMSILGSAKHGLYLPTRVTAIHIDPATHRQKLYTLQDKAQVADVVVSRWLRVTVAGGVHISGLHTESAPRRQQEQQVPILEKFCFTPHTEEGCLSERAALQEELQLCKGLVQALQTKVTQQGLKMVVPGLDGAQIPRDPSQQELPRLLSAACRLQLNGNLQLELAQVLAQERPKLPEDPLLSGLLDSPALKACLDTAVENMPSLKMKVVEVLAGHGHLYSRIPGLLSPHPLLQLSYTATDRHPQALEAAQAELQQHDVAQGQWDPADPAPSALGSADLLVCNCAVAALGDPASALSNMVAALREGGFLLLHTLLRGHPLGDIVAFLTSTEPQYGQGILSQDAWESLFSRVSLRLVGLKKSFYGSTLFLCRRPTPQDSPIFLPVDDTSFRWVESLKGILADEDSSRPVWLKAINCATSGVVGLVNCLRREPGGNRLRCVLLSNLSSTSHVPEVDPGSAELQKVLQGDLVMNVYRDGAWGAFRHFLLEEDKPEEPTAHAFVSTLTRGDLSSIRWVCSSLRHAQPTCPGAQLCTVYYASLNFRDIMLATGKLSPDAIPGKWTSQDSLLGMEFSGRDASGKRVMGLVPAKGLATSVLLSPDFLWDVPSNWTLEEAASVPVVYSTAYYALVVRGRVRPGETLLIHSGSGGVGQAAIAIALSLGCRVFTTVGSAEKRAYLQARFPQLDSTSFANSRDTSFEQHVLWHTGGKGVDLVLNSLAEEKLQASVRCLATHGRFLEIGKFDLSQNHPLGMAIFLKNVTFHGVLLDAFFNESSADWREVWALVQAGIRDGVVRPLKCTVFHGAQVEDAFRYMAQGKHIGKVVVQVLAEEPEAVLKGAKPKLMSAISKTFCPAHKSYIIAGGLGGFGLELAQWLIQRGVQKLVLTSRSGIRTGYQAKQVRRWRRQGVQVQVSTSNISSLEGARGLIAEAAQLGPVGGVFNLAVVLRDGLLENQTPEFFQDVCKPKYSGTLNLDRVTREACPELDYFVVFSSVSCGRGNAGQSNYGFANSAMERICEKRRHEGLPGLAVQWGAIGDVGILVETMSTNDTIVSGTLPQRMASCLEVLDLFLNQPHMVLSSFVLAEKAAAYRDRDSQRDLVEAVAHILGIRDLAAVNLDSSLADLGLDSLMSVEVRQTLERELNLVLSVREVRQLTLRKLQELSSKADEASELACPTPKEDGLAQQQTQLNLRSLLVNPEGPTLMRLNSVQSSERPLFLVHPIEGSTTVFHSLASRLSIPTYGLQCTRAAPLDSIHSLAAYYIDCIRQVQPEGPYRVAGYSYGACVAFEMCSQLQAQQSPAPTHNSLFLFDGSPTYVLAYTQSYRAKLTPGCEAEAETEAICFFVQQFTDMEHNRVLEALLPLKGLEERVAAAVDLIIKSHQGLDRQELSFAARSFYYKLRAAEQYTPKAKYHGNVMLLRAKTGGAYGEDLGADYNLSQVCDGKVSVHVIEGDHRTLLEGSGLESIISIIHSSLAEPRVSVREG

As usually defined, the inhibition is the drop in the measured response relative to a control, in per cent. In the case of `Cc1ccc(C(=O)N2CCC(c3ccc(C#N)cc3)CC2)cc1NC(=O)NCC(=O)NC(C)C` [Example 171, 2-[[5-[4-(4-cyanophenyl)piperidine-1-carbonyl]-2-methyl-phenyl]carbamoylamino]-N-propan-2-yl-acetamide], the inhibition at 100 µM came out at 96.3%.
In the case of `CCCCNC(=O)Nc1ccc(C)c(C(=O)N2CCC(c3ccc(C#N)cc3)CC2)c1` [Example 20, 1-butyl-3-[3-[4-(4-cyanophenyl)piperidine-1-carbonyl]-4-methyl-phenyl]urea], the inhibition at 100 µM was 79.2%.
With `CCC(=O)NCCNC(=O)Nc1cc(C(=O)N2CCC(c3ccc(C#N)cc3)CC2)ccc1C` [Example 111, N-[2-[[5-[4-(4-cyanophenyl)piperidine-1-carbonyl]-2-methyl-phenyl]carbamoylamino]ethyl]propanamide], the inhibition at 100 µM came to 95.6%.
Consider `CC(C)=CCNC(=O)Nc1cc(C(=O)N2CCC(c3ccc(C#N)cc3)CC2)ccc1C` [Example 96, 1-[5-[4-(4-cyanophenyl)piperidine-1-carbonyl]-2-methyl-phenyl]-3-(3-methylbut-2-enyl)urea], for which the inhibition at 100 µM was found to be 103%.
On to `COc1ccc(C2CCN(C(=O)c3ccc(C)c(NC(=O)NC(C)C)c3)CC2)cc1` [Example 328, 1-[5-[4-(4-methoxyphenyl)piperidine-1-carbonyl]-2-methyl-phenyl]-3-propan-2-yl-urea], for which the inhibition at 100 µM was 86.7%.
In the case of `COC(=O)CNC(=O)Nc1cc(C(=O)N2CCC(c3ccc(C#N)cc3)CC2)ccc1C` [Example 72, Methyl 2-[[5-[4-(4-cyanophenyl)piperidine-1-carbonyl]-2-methyl-phenyl]carbamoylamino]acetate], the inhibition at 100 µM worked out at 80.1%.
For the compound `Cc1ccc(C(=O)N2CCC(c3ccc(C#N)cc3)CC2)cc1NC(=O)NCC1CC1` [Example 288, 1-[5-[4-(4-cyanophenyl)piperidine-1-carbonyl]-2-methyl-phenyl]-3-(cyclopropylmethyl)urea], the inhibition at 100 µM was found to be 99.8%.
In the case of `Cc1ccc(C(=O)N2CCC(O)(c3ccc(Cl)cc3)CC2)cc1NC(=O)NC(C)C` [Example 350, 1-[5-[4-(4-chlorophenyl)-4-hydroxy-piperidine-1-carbonyl]-2-methyl-phenyl]-3-propan-2-yl-urea], the inhibition at 100 µM is 71.4%.
On the same count and under the same terms, for `Cc1ccc(C(=O)N2CCC(c3ccc(C#N)cc3)CC2)cc1NC(=O)NC1CCC(O)CC1` (stereo not drawn) [Example 107, 1-[5-[4-(4-cyanophenyl)piperidine-1-carbonyl]-2-methyl-phenyl]-3-(4-hydroxycyclohexyl)urea] the value was 97.7%.
Same read-out and setting: the figure for `Cc1ccc(C(=O)N2CCC(c3ccc(C#N)cc3)CC2)cc1NC(=O)N1CC(N)C1` [Example 306, 3-amino-N-[5-[4-(4-cyanophenyl)piperidine-1-carbonyl]-2-methyl-phenyl]azetidine-1-carboxamide] is 84.7%; for `CNCCNC(=O)Nc1cc(C(=O)N2CCC(c3ccc(C#N)cc3)CC2)ccc1C` [Example 116, 1-[5-[4-(4-cyanophenyl)piperidine-1-carbonyl]-2-methyl-phenyl]-3-(2-methylaminoethyl)urea] it is 86.2%; for `Cc1ccc(C(=O)N2CCC(c3ccc(C#N)cc3)CC2)cc1NC(=O)N(C)Cc1ccccc1` [Example 381, 1-benzyl-3-[5-[4-(4-cyanophenyl)piperidine-1-carbonyl]-2-methylphenyl]-1-methylurea] it is 71.1%.
With `Cc1ccc(C(=O)N2CCC(c3ccc(C#N)cc3)CC2)cc1NC(=O)N[C@H]1CCNC1` [Example 213, 1-[5-[4-(4-cyanophenyl)piperidine-1-carbonyl]-2-methyl-phenyl]-3-[(3S)-pyrrolidin-3-yl]urea], the inhibition at 100 µM was 88.6%.
Same read-out and setting: the figure for `Cc1ccc(C(=O)N2CCC(c3ccc(C#N)cc3)CC2)cc1NC(=O)NCCCC(=O)OC(C)(C)C` [Example 51, tert-butyl 4-[[5-[4-(4-cyanophenyl)piperidine-1-carbonyl]-2-methyl-phenyl]carbamoylamino]butanoate] is 101%; for `COC(=O)C1CCC(NC(=O)Nc2cc(C(=O)N3CCC(c4ccc(C#N)cc4)CC3)ccc2C)CC1` (stereo not drawn) [Example 181, Methyl 4-[[5-[4-(4-cyanophenyl)piperidine-1-carbonyl]-2-methyl-phenyl]carbamoylamino]cyclohexane-1-carboxylate] it is 93.1%; for `Cc1ccc(C(=O)N2CCC(c3ccc(C#N)cc3)CC2)cc1NC(=O)NC(C)(C)CN` [Example 260, 3-(1-amino-2-methyl-propan-2-yl)-1-[5-[4-(4-cyanophenyl)piperidine-1-carbonyl]-2-methyl-phenyl]urea] it is 77.4%.
As to `Cc1ccc(C(=O)N2CCC(c3ccc(C#N)cc3)CC2)cc1NC(=O)NC1Cc2cccnc2NC1=O` (racemic) [Example 239, (RS)-1-[5-[4-(4-cyanophenyl)piperidine-1-carbonyl]-2-methyl-phenyl]-3-(2-oxo-3,4-dihydro-1H-1,8-naphthyridin-3-yl)urea], the inhibition at 100 µM turned out to be 86.5%.
Consider `Cc1ccc(C(=O)N2CCC(c3ccc(C#N)cc3)CC2)cc1NC(=O)N1CC(O)C1` [Example 345, N-[5-[4-(4-cyanophenyl)piperidine-1-carbonyl]-2-methyl-phenyl]-3-hydroxy-azetidine-1-carboxamide], for which the inhibition at 100 µM stood at 96.5%.
`Cc1ccc(C(=O)N2CCC(c3ccc(C#N)cc3)CC2)cc1NC(=O)N1CCCC1` [Example 10, N-[5-[4-(4-cyanophenyl)piperidine-1-carbonyl]-2-methyl-phenyl]pyrrolidine-1-carboxamide]: the inhibition at 100 µM is 83.5%.
The same measure, in the same setting: for `Cc1ccc(C(=O)N2CCC(c3ccc(C#N)cc3)CC2)cc1NC(=O)NCCNS(C)(=O)=O` [Example 109, 1-[5-[4-(4-cyanophenyl)piperidine-1-carbonyl]-2-methyl-phenyl]-3-(2-methanesulfonamidoethyl)urea] the value was 98.3%; for `Cc1ccc(C(=O)N2CCC(c3ccc(C#N)cc3)CC2)cc1NC(=O)NC12CC3CC(CC(O)(C3)C1)C2` [Example 197, 1-[5-[4-(4-cyanophenyl)piperidine-1-carbonyl]-2-methyl-phenyl]-3-(3-hydroxy-1-adamantyl)urea], 84.4%.
Regarding `Cc1ccc(C(=O)N2CCC(c3ccc(C#N)cc3)CC2)cc1NC(=O)NC(C)CO` (stereo not drawn) [Example 182, 1-[5-[4-(4-cyanophenyl)piperidine-1-carbonyl]-2-methyl-phenyl]-3-(1-hydroxypropan-2-yl)urea], the inhibition at 100 µM came out at 96.2%.
On the same count and under the same terms, for `Cc1ccc(C(=O)N2CCC(c3ccc(C#N)cc3)CC2)cc1NC(=O)NCC1CCCCO1` (stereo not drawn) [Example 166, 1-[5-[4-(4-cyanophenyl)piperidine-1-carbonyl]-2-methyl-phenyl]-3-(oxan-2-ylmethyl)urea] the value was 94.7%; for `Cc1ccc(C(=O)N2CCC(c3ccc(C#N)cc3)CC2)cc1NC(=O)NCc1ccncn1` [Example 266, 1-[5-[4-(4-cyanophenyl)piperidine-1-carbonyl]-2-methyl-phenyl]-3-(pyrimidin-4-ylmethyl)urea], 103%.
On to `Cc1ccc(C(=O)N2CCC(c3ccc(C#N)cc3)CC2)cc1NC(=O)NCc1cccc(N2CCOCC2)n1` [Example 358, 1-[5-[4-(4-cyanophenyl)piperidine-1-carbonyl]-2-methyl-phenyl]-3-[(6-morpholin-4-ylpyridin-2-yl)methyl]urea], for which the inhibition at 100 µM came to 93.2%.
As for `Cc1ccc(C(=O)N2CCC(c3ccc(C#N)cc3)CC2)cc1NC(=O)N1CCN(C(=O)C(C)C)CC1` [Example 331, N-[5-[4-(4-cyanophenyl)piperidine-1-carbonyl]-2-methyl-phenyl]-4-(2-methylpropanoyl)piperazine-1-carboxamide], the inhibition at 100 µM amounted to 84.2%.
As for `Cc1ccc(C(=O)N2CCC(c3ccc(C#N)cc3)CC2)cc1NC(=O)NCCNC(=O)c1cccn1C` [Example 118, N-[2-[[5-[4-(4-cyanophenyl)piperidine-1-carbonyl]-2-methyl-phenyl]carbamoylamino]ethyl]-1-methyl-pyrrole-2-carboxamide], the inhibition at 100 µM was determined as 96.2%.
In the case of `CCCS(=O)(=O)NCCNC(=O)Nc1cc(C(=O)N2CCC(c3ccc(C#N)cc3)CC2)ccc1C` [Example 174, 3-[5-[4-(4-cyanophenyl)piperidine-1-carbonyl]-2-methyl-phenyl]-1-[2-(propylsulfonylamino)ethyl]urea], the inhibition at 100 µM came to 97.4%.
`Cc1ccc(C(=O)N2CCC(c3ccc(C(F)(F)F)cc3)CC2)cc1NC(=O)NCCN(C)C` [Example 334, 3-(2-dimethylaminoethyl)-1-[2-methyl-5-[4-[4-(trifluoromethyl)phenyl]piperidine-1-carbonyl]phenyl]urea]: the inhibition at 100 µM was 92.6%.
Take `COCCN(C)C(=O)Nc1cc(C(=O)N2CCC(c3ccc(C#N)cc3)CC2)ccc1C` [3-[5-[4-(4-cyanophenyl)piperidine-1-carbonyl]-2-methylphenyl]-1-(2-methoxyethyl)-1-methylurea]: under “FAS enzyme assay, IC50 from fitted sigmoid curves”, the “IC50, inhibition of human Fatty Acid Synthase” value is given as “do not have IC50s in the range of about 0.001 μM to about 30 μM”.
Take `Cc1ccc(C(=O)N2CCC(c3ccc(C#N)cc3)CC2)cc1NC(=O)NCCNc1ccc([N+](=O)[O-])cc1` [Example 87, 1-[5-[4-(4-cyanophenyl)piperidine-1-carbonyl]-2-methyl-phenyl]-3-[2-[(4-nitrophenyl)amino]ethyl]urea]: the inhibition at 100 µM turned out to be 92.5%.
In the case of `Cc1ccc(C(=O)N2CCC(c3ccc(C#N)cc3)CC2)cc1NC(=O)N[C@H]1CCCC[C@@H]1NS(C)(=O)=O` (relative stereo) [Example 315, 1-[5-[4-(4-cyanophenyl)piperidine-1-carbonyl]-2-methyl-phenyl]-3-[(trans)-2-methanesulfonamidocyclohexyl]urea], the inhibition at 100 µM came to 104%.
For `CC(=O)N1CCCC(NC(=O)Nc2cc(C(=O)N3CCC(c4ccc(C#N)cc4)CC3)ccc2C)C1` (stereo not drawn) [Example 390, 3-(1-acetylpiperidin-3-yl)-1-[5-[4-(4-cyanophenyl)piperidine-1-carbonyl]-2-methylphenyl]urea], the inhibition at 100 µM amounted to 90.6%.
